Reference: patent US20240285808A1, “MOLECULAR PROBES FOR IN VIVO DETECTION OF ALDEHYDES” (The General Hospital Corporation, priority 2021, published 2024)
Values joined by “and” are separate entries in the source; they are usually repeats but may differ in a detail not shown here. Identical values can stand only once.

Columns and labels:
[1] = system: lungs of bleomycin-injured mice; assay: MR imaging of lung in bleomycin lung fibrosis model; assay type: in vivo, mouse; conditions: for ΔLMR in lungs, pair-wise comparison: 60 min post injection, individual mice ID 1-6
Method: C57Bl/6 adult male mice at 8 weeks of age (Jackson Laboratories, Barr Harbor, ME) received a single intratracheal dose of bleomycin, 1 units/kg body weight (50 μL total volume) (Fresenius Kabi, Lake Zurich, Il) as previously described in Desogere, P., et al. Optimization of a Collagen-Targeted PET Probe for Molecular Imaging of Pulmonary Fibrosis. J Nuc Med 58, 1991-1996 (2017).
Pair-Wise Comparison Between Gd-CHyd and Gd-9 in Lung Fibrosis Model:
A series of baseline images were first acquired. […] Then anesthesia was removed, and the mouse was allowed to awake and return to cage. After 4 hours, the same mouse was anesthetized again.
Pair-wise comparison between Mn-15 and Mn-17 in lung fibrosis model: The bleomycin-injured mice were first randomly imaged with Mn-15 or Mn-17 and then 24 hours later same imaging protocol was performed in the same mice with the other probe.
(§1) Animals were anesthetized with isoflurane (1-2%) and placed in a specially designed cradle with body temperature maintained at 37° C. The inhaled isoflurane level was adjusted to maintain a respiration rate of 60±5 breaths per minute. The tail vein was cannulated for intravenous (i.v.) delivery of the contrast agent while the animal was positioned in the scanner. Imaging was performed at 4.7 T using a small bore animal scanner with a custom-built volume coil. Mice were imaged with a dose of 100 μmol/kg from 30 mM stock solution of Gd or Mn complex.
For lung imaging, images were acquired with following sequences and parameters: 3D Ultrashort TE (3D-UTE, TR/TE/FA=4 ms/11.75 μs/16°, 0.6 mm isotropic spatial resolution, field of view (FOV) 75 mm×75 mm, one average, acquisition time=6.1 min) images were acquired prior to and dynamically post injection of contrast agent; Rapid Acquisition with Relaxation Enhancement (RARE, TR/TE/FA=1.5 s/8 ms/180°, 0.3 mm isotropic spatial resolution, field of view (FOV) 60 mm×50 mm, four average, acquisition time=6.1 min) and T1-weighted 3D Fast Low Angle Shot (FLASH, TR/TE/FA=10 ms/2.5 ms/30°, 0.6 mm isotropic spatial resolution, field of view (FOV) 60 mm×50 mm, one average, acquisition time=6.1 min) images were also acquired.
A total of 6 lung ROIs were defined on axial UTE images to obtain signal intensity (SI); ROIs in the dorsal muscle in each slice were also defined as reference; ROIs in the field of view without any tissue (air) were used to measure the variation in background signal. Then the lung-to muscle ratio (LMR) or contrast to noise ratio (CNR) was averaged from the 6 slices to calculate changes in LMR (ΔLMR) or CNR (ΔCNR) at each time point.
Gd-9 is a Gd-DOTA derivative with two hydrazine arms synthesized by amide coupling of two tBu-piperazin-1-ylcarbamate groups to 1,4,7,10-tetraazacyclododecane-1,4-bis(tBu-acetate)-4,10-bis(glutaric acid 1-tBu ester), followed by acid deprotection and gadolinium complexation. C57Bl/6 adult male mice at 8 weeks of age received a single intratracheal dose of bleomycin, 1 U/kg body weight (50 μL total volume) as previously described. Pair-wise imaging study of GdCHyd and Gd-9 was carried out in mice at day 14 post bleomycin injury on a 4.7 T MRI with a dose of 100 μmol/kg of each probe. For the treatment study, mice were imaged first at day 10 post bleomycin injury, then treated daily with oral gavage of either epigallocatechin gallate (EGCG, 100 mg/kg) or PBS (vehicle) for 11 days. At day 21 post bleomycin injury, the animals were imaged again. MRI consisted of T1-weighted UTE (TR/TE/flip angle=4 ms/0.011 ms/15°) images acquired prior to and up to 30 minutes following intravenous administration of Gd-9 ([…]). Following the second imaging session, animals were euthanized (60 minutes post injection), and lung tissues were removed for further analysis.

[2] = system: liver of CCl4 injured mice; assay type: in vivo, mouse; conditions: for ΔCNR (liver to muscle): 100 μmol/kg i.v., group mean; for ΔCNR of liver, pair-wise comparison: individual mice ID 1-6
Method: CCl4 Liver Fibrosis Model:
Male C57BL/6 mice (Charles River Laboratories, Wilmington, MA) were treated with carbon tetrachloride for 12 weeks (0.1 ml of 20% CCl4 in olive oil the first week, 30% the second week, and 40% from weeks 3-12) by oral gavage, 2-3 times per week. Control mice were fed vehicle (olive oil) only.
A total of 53 C57BL/6 mice were included to study CCl4 induced hepatic fibrosis: • A. CCl4 for 12 weeks (n=20). Each mouse was imaged with probe 1 and then imaged again 24 hours later with probe 2. Probe 1 and Probe 2 were randomly chosen from GdDOTA, GdCHyd, Mn-12, Gd-9 and Gd-10. • B. Vehicle treated control (n=20). Each mouse was imaged with probe 1 and then imaged again 24 hours later with probe 2. Probe 1 and Probe 2 were randomly chosen from GdDOTA, Mn-12, GdCHyd, Gd-9, Gd-10. • C. CCl4 for 12 weeks (n=3, another 3 pair-wise comparison have been done in group A). Each mouse was imaged with probe 1 and then imaged again 24 hours later with probe 2. […] Each mouse was imaged with probe 1 and then imaged again 24 hours later with probe 2. Probe 1 and Probe 2 were randomly choosing from Gd-9 and Gd-10. • E. CCl4 for 12 weeks (n=3). Each mouse was imaged with Gd-9. After 24 hours, the same mouse was first injected with 1000 μmol/kg of Yb-9 and then injected with 100 μmol/kg of Gd-9 15 min after the Yb-9 injection.
as §1
For mice liver imaging, a series of baseline images (3D T1 weighted fast low angle shot magnetic resonance imaging (FLASH)) were first acquired (repetition time/echo time=15/2 ms; flip angle, 30°; field of view, 48×30 mm^2; matrix size, […]; slice thickness, 0.25 mm; acquisition time, 3 minutes 20 seconds), then a bolus of Gd or Mn complex was administered i.v. and imaging performed for a period of 45 min p.i. with the repetition acquisition of 3D T1 weighted FLASH sequences. Following the imaging session, animals were sacrificed (75 min p.i.) and liver tissue was subjected to histopathologic analysis.
For liver imaging analysis, a region of interest (ROI) was manually traced encompassing the liver parenchyma while avoiding major blood vessels. A second ROI was placed on the dorsal muscle visible in the same image slice to quantify the signal intensity in the muscle for comparison. Seven ROIs were placed in the field of view without any tissue (air) to measure the variation in background signal. More than 20 axial slices per mouse across the entire liver were analyzed in this fashion. […] Contrast to noise ratio (CNR) was calculated by measuring the difference in signal intensity (SI) between liver and muscle and normalizing to the standard deviation of the signal in the air, eq 21. ΔCNR was calculated by subtracting CNR measured prior to probe injection (CNRPre) from CNR measured after injection (CNRPost), eq 22. […]

[3] = CCl4 injured mice, 45 min post injection
[4] = bleomycin injured mice (fibrotic lung)

SMILES | fold higher signal in fibrotic lung than GdCHyd ([1]; bleomycin day 14, pairwise study, same time point post injection) [fold] | ΔCNR of lung, pair-wise comparison ([1]; bleomycin injured mice, 25 min post injection, individual mice ID 1-4) | fold higher ΔCNR compared to Gd-CHyd (monobinder) ([2]; CCl4 injured mice, 45 min p.i.) [fold] | ΔCNR (liver to muscle) [2, 3] | ΔCNR of liver, With blocking ([2]; CCl4 injured mice, 45 min post injection, blocking dose of Yb-9 (1000 μmol/kg) 15 min before, individual mice ID 1-3) | ΔCNR of liver, Without blocking ([2]; CCl4 injured mice, 45 min post injection, individual mice ID 1-3) | ΔCNR of liver, pair-wise comparison [2, 3] | ΔLMR in lungs, pair-wise comparison [1] | Change in lung to muscle ratio (ΔLMR) ([1]; Bleomycin injured mice) | Change in lung to muscle ratio (ΔLMR) ([1]; Naïve mice) | Washout T1/2 in lungs ([1]; Naïve mice (normal lung)) [min] | Washout T1/2 in lungs [1, 4] | fold higher DCNR in CCl4 treated vs vehicle treated mice ([2]; 20 minutes post injection) [fold]
NN1CCN(C(=O)CCC(C(=O)[O-])N2CCN(CC(=O)[O-])CCN(CC(=O)[O-])CCN(C(CCC(=O)N3CCN(N)CC3)C(=O)[O-])CC2)CC1.[Gd+3] (stereo not drawn) [Gd-9, cis-1,4-Gd-(CHyd)2] | 3 | 3.7 and 4.3 and 3.0 and 4.0 | 10 | 2.2±0.8 and 2.2 ± 0.9 | 0.1 (2×) and 0.3 | 3.6 and 2.7 and 3.0 | 1.9 (2×) and 3.2 and 1.3 and 2.1 and 1.5 | – | – | – | – | – | –
NN1CCN(C(=O)CCC(C(=O)[O-])N2CCN(CC(=O)[O-])CCN(C(CCC(=O)N3CCN(N)CC3)C(=O)[O-])CCN(CC(=O)[O-])CC2)CC1.[Gd+3] (stereo not drawn) [Gd-10, trans-1,7-Gd-(CHyd)2] | – | – | – | 1.3±0.4 and 1.5 ± 0.9 | – | – | 1.3 and 2.3 and 1.2 and 0.9 and 1.4 and 1.0 | – | – | – | – | – | –
NNC(CCC(=O)NCCCN1CCN(CC(=O)[O-])Cc2cccc(n2)CN(CC(=O)[O-])CC1)C(=O)O.[Mn+2] (centres unmarked) [Mn-15] | – | – | – | 1.2 ± 0.2 | – | – | – | 0.06 and 0.11 and 0.18 (2×) and 0.08 and 0.15 | 0.13 | 0.00 | 13.7 ± 1.4 | 33.5 ± 5.1 min and 33.6 ± 5.1 min | 3
NOC(CCC(=O)NCCCN1CCN(CC(=O)[O-])Cc2cccc(n2)CN(CC(=O)[O-])CC1)C(=O)O.[Mn+2] (centres unmarked) [Mn-16] | – | – | – | – | – | – | – | – | 0.18 | 0.00 | 17.9 ± 3.2 | >240 min | –
NNCC(=O)NCCCN1CCN(CC(=O)[O-])Cc2cccc(n2)CN(CC(=O)[O-])CC1.[Mn+2] [Mn-17] | – | – | – | – | – | – | – | 0.09 and 0.18 (2×) and 0.27 and 0.15 (2×) | 0.15 | 0.00 | 15.1 ± 1.9 | 41.5 ± 6.3 min | –
CN(C)C(CCC(=O)NCCCN1CCN(CC(=O)[O-])Cc2cccc(n2)CN(CC(=O)[O-])CC1)C(=O)O.[Mn+2] (centres unmarked) [Mn-18] | – | – | – | – | – | – | – | – | 0.04 | 0.01 | 15.7 ± 1.8 | 18.9 ± 2.0 min | –
